Test results as given in article PMC7124378 (International Journal of Biological Macromolecules, 2015).

Key:
cathepsin B = cathepsin B (Capra hircus, UniProt A0A452G2V1); assay: Inhibition of purified goat liver cathepsin B, BANA substrate, pH 6.0; type: biochemical
cathepsin H = biological target: T1, cathepsin H (Capra hircus, UniProt A0A452G5L2); assay: Inhibition of purified goat liver cathepsin H, Leu-βNA substrate, pH 7.0; type: biochemical
T1 sequence (A0A452G5L2 with tags, fused parts or gaps): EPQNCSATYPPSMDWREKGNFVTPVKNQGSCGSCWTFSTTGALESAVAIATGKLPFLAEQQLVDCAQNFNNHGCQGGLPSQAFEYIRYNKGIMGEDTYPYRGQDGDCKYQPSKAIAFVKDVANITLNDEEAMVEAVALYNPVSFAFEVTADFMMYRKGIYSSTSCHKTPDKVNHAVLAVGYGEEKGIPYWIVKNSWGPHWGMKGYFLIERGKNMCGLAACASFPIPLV

cathepsin L = cathepsin L (Capra hircus, UniProt A0A452FFI6); assay: Inhibition of purified goat liver cathepsin L, ZPheArg-4mβNA substrate, pH 6.0; type: biochemical
goat brain cathepsin B = conditions: read-out: Ki, goat brain cathepsin B; competitive; cited from earlier work
goat brain cathepsin L = conditions: read-out: Ki, goat brain cathepsin L; cited from earlier work

Row | Structure (SMILES) | Ki (cathepsin B) | Ki (cathepsin H) | Ki (cathepsin L) | inhibition at 1 µM (cathepsin B; read-out: % inhibition of cathepsin B) | inhibition at 10 µM (cathepsin H; read-out: % inhibition of cathepsin H) | inhibition at 0.001 µM (cathepsin L; read-out: % inhibition of cathepsin L) | Ki (goat brain cathepsin B) | Ki (goat brain cathepsin L)
1 | NC(=O)N/N=C(\C=C\c1ccccc1Cl)c1ccccc1 [2a′, (1E)-1-((E)-3-(2-chlorophenyl)-1-phenylallylidene)semicarbazide] | 2.7 ± 0.04 µM | 33 ± 0.4 µM | 0.04 ± 0.0003 nM |  |  |  |  | 
2 | NC(=O)N/N=C(\C=C\c1ccc(Cl)cc1)c1ccccc1 [2c′, (1E)-1-((E)-3-(4-chlorophenyl)-1-phenylallylidene)semicarbazide] | 36.4 ± 0.5 µM | 21 ± 0.2 µM | 0.93 ± 0.007 nM |  |  |  |  | 
3 | O=C(/C=C/c1ccccc1Cl)c1ccccc1 [Compound 1a, (E)-3-(2-chlorophenyl)-1-phenylprop-2-en-1-one] | 19.5 ± 0.2 µM | 110 ± 1 µM | 6 ± 0.02 nM |  |  |  |  | 
4 | O=C(/C=C/c1cccc(Cl)c1)c1ccccc1 [Compound 1b, (E)-3-(3-chlorophenyl)-1-phenylprop-2-en-1-one] | 130 ± 2 µM | 312 ± 2 µM | 0.04 ± 0.0001 nM |  |  |  |  | 
5 | O=C(/C=C/c1cccc([N+](=O)[O-])c1)c1ccccc1 [Compound 1g, (E)-3-(3-nitrophenyl)-1-phenylprop-2-en-1-one] | 100 ± 1 µM | 60 ± 0.2 µM | 2.05 ± 0.03 nM |  |  |  |  | 
6 | NC(=O)N/N=C(/C=C/c1ccccc1Cl)c1ccccc1 [Compound 2a, (1Z)-1-((E)-3-(2-chlorophenyl)-1-phenylallylidene)semicarbazide] | 0.207 ± 0.001 µM | 43 ± 0.2 µM | 1.78 ± 0.02 nM |  |  |  |  | 
7 | NC(=O)N/N=C(/C=C/c1ccc(Cl)cc1)c1ccccc1 [Compound 2c, (1Z)-1-((E)-3-(4-chlorophenyl)-1-phenylallylidene)semicarbazide] | 27.3 ± 0.4 µM | 29 ± 0.5 µM | 1.17 ± 0.02 nM |  |  |  |  | 
8 | NC(=O)N/N=C(/C=C/c1cccc([N+](=O)[O-])c1)c1ccccc1 [Compound 2g, (1Z)-1-((E)-3-(3-nitrophenyl)-1-phenylallylidene)semicarbazide] | 41.3 ± 0.5 µM | 23 ± 0.3 µM | 2.05 ± 0.02 nM |  |  |  |  | 
9 | CC(=O)N[C@@H](CC(C)C)C(=O)N[C@@H](CC(C)C)C(=O)N[C@H](C=O)CCCNC(=N)N [Leupeptin, reference compound] |  |  |  | ~98.8% | ~52% | 89.2% | 0.0125 µM | 0.00145 µM

Now from value to compound, other results behind:

Row | Ki (cathepsin B) | Ki (cathepsin H) | Ki (cathepsin L) | inhibition at 1 µM (cathepsin B; read-out: % inhibition of cathepsin B) | inhibition at 10 µM (cathepsin H; read-out: % inhibition of cathepsin H) | inhibition at 0.001 µM (cathepsin L; read-out: % inhibition of cathepsin L) | Structure (SMILES) | Ki (goat brain cathepsin B) | Ki (goat brain cathepsin L)
10 | 9.4 ± 0.03 µM | 60 ± 0.3 µM | 31.6 ± 0.4 nM |  |  |  | NC(=O)N1N=C(c2ccccc2)CC1c1ccccc1Cl (centres unmarked) [Compound 3a, 5-(2′-chlorophenyl)-3-phenyl-2-pyrazoline-1-carboxamide] |  | 
11 | 82.7 ± 1 µM | 25 ± 0.5 µM | 50.5 ± 0.3 nM |  |  |  | NC(=O)N1N=C(c2ccccc2)CC1c1cccc(Cl)c1 (centres unmarked) [Compound 3b, 5-(3′-chlorophenyl)-3-phenyl-2-pyrazoline-1-carboxamide] |  | 
12 | 39 ± 0.2 µM | 66 ± 0.4 µM | 33 ± 0.1 nM |  |  |  | NC(=O)N1N=C(c2ccccc2)CC1c1ccc(Cl)cc1 (centres unmarked) [Compound 3c] |  | 
13 | 14.8 ± 0.07 µM | 40 ± 0.1 µM | 217 ± 4 nM |  |  |  | COc1ccccc1C1CC(c2ccccc2)=NN1C(N)=O (centres unmarked) [Compound 3d] |  | 
14 | 34.9 ± 0.1 µM | 43 ± 0.1 µM | 8.2 ± 0.06 nM |  |  |  | COc1cccc(C2CC(c3ccccc3)=NN2C(N)=O)c1 (centres unmarked) [Compound 3e] |  | 
15 | 69.3 ± 0.07 µM | 48 ± 0.2 µM | 0.5 ± 0.002 nM |  |  |  | COc1ccc(C2CC(c3ccccc3)=NN2C(N)=O)cc1 (centres unmarked) [Compound 3f] |  | 
16 | 58.1 ± 0.05 µM | 38 ± 0.2 µM | 0.4 ± 0.005 nM |  |  |  | NC(=O)N1N=C(c2ccccc2)CC1c1cccc([N+](=O)[O-])c1 (centres unmarked) [Compound 3g, 5-(3′-nitrophenyl)-3-phenyl-2-pyrazoline-1-carboxamide] |  | 
17 | 39 ± 0.03 µM | 60 ± 0.3 µM | 16.9 ± 0.3 nM |  |  |  | NC(=O)N1N=C(c2ccccc2)CC1c1ccc([N+](=O)[O-])cc1 (centres unmarked) [Compound 3h] |  | 
18 | 52.4 ± 0.01 µM | 192 ± 0.4 µM | 86.2 ± 0.2 nM |  |  |  | NC(=O)N1N=C(c2ccccc2)CC1c1ccccc1 (centres unmarked) [Compound 3i] |  | 
19 | 116 ± 2 µM | 48 ± 0.5 µM | 23.4 ± 0.2 nM |  |  |  | Cc1ccc(C2CC(c3ccccc3)=NN2C(N)=O)cc1 (centres unmarked) [Compound 3j] |  | 
